The values below come from patent US9662327B2 (AGIOS PHARMACEUTICALS, INC, priority 2011, dated 2017).

Read-outs that look alike come from different tables or passages of the source. Bounds are passed on as bounds.

This assay has as its target IDH1 R132H (Homo sapiens (Human), UniProt O75874, R132H). Briefly: Assays for IDH1 R132H Inhibitors (NADPH/aKG, resazurin detection). Type of assay: biochemical. The conditions noted are these: IDH1 R132H enzyme. The essentials: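 Mutant enzyme in 150 mM NaCl, 10 mM MgCl2, 20 mM Tris pH 7.5, 0.03% BSA; compound in DMSO added to substrate mix of 8 uM NADPH and 2 mM aKG. Reaction ran 50 min at room temperature, then resazurin detection mix (30 μM) added for 5 min at room temperature.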
For orientation: Alamar Blue is a resazurin reagent that responds to reducing activity.

Setting [1] is: Table 2, read-out: IDHR132H Activity.

IDH1 R132H, sequence (O75874 whole entry R132H): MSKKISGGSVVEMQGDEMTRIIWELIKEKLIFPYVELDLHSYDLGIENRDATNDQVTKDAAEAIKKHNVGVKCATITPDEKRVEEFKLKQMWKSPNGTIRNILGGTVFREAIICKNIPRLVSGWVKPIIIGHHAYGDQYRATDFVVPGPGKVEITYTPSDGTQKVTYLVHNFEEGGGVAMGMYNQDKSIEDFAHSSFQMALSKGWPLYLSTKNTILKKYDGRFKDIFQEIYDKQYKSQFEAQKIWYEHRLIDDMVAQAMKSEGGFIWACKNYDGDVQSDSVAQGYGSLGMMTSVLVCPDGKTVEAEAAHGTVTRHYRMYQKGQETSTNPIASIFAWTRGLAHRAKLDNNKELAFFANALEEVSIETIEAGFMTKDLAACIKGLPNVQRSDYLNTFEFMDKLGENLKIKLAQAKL

As for `CC(C)[C@@H]1CN(c2nc(C3CC3)c3c(c2C#N)CC(C)(C)OC3)CCN1C(=O)CCl` [Compound 317, (R)-6-(4-(2-chloroacetyl)-3-isopropylpiperazin-1-yl)-8-cyclopropyl-3,3-dimethyl-3,4-dihydro-1H-pyrano[3,4-c]pyridine-5-carbonitrile], the IC50 under setting [1] was less than 500 nM.

Consider `CC(C)[C@@H]1CN(c2nc(C3CC3)c3c(c2C#N)CC(C)(C)OC3)CCN1C(=O)COc1cccc(F)c1` [Compound 384], for which, under setting [1], the IC50 is 1000 to 10000 nM.

On to `CC(C)c1nc(N2CCN(C(=O)c3ccoc3)[C@H](c3ccccc3)C2)c(C#N)c2c1COC(C)(C)C2` [Compound 256, (R)-6-(4-(furan-3-carbonyl)-3-phenylpiperazin-1-yl)-8-isopropyl-3,3-dimethyl-3,4-dihydro-1H-pyrano[3,4-c]pyridine-5-carbonitrile], for which, under setting [1], the IC50 was 1000 to 10000 nM.

For `COc1cccc(CC(=O)N2CCN(c3nc(C(C)C)c4c(c3C#N)CC(C)(C)OC4)C[C@H]2C)c1` [Compound 221, (R)-8-isopropyl-6-(4-(2-(3-methoxyphenyl)acetyl)-3-methylpiperazin-1-yl)-3,3-dimethyl-3,4-dihydro-1H-pyrano[3,4-c]pyridine-5-carbonitrile], the IC50 under setting [1] was 1000 to 10000 nM.

On to `CCOC(=O)C1CN(c2nc(C3CCCCC3)c3c(c2C#N)CCOC3)CCN1C(=O)OCCOC` (stereo not drawn) [Compound 315, 2-ethyl-1-(2-methoxyethyl) 4-(5-cyano-8-cyclohexyl-3,4-dihydro-1H-pyrano[3,4-c]pyridin-6-yl)-piperazine-1,2-dicarboxylate], for which, under setting [1], the IC50 lay in the range of 1000 to 10000 nM.

As to `COCCC(=O)N1CCN(c2nc(C3CC3)c3c(c2C#N)CCN(C(C)=O)C3)C[C@H]1C1CC1` [Compound 478, (R)-7-acetyl-1-cyclopropyl-3-(3-cyclopropyl-4-(3-methoxypropanoyl)piperazin-1-yl)-5,6,7,8-tetrahydro-2,7-naphthyridine-4-carbonitrile], the IC50 (Table 3, read-out: R132H IC50) was less than 500 nM.

As for `C[C@@H]1CN(c2nc(C3CCCCC3)c3c(c2C#N)CCOC3)CCN1C(=O)C1CCOC1` (stereo partly drawn) [Compound 263, 8-cyclohexyl-6-((3R)-3-methyl-4-(tetrahydrofuran-3-carbonyl)piperazin-1-yl)-3,4-dihydro-1H-pyrano[3,4-c]pyridine-5-carbonitrile], the IC50 under setting [1] lay in the range of 1000 to 10000 nM.

Turning to `CC1CN(c2nc(C3CCCCC3)c3c(c2C#N)CC(C)(C)OC3)CCN1C(=O)c1ccco1` (stereo not drawn) [Compound 168, 8-cyclohexyl-6-(4-(furan-2-carbonyl)-3-methylpiperazin-1-yl)-3,3-dimethyl-3,4-dihydro-1H-pyrano[3,4-c]pyridine-5-carbonitrile], the IC50 under setting [1] fell in the range of 1000 to 10000 nM.

For the molecule `Cc1nccn1CC(=O)N1CCN(c2nc(C3CC3)c3c(c2C#N)CC(C)(C)OC3)C[C@H]1C(C)C` [Compound 380, (R)-8-cyclopropyl-6-(3-isopropyl-4-(2-(2-methyl-1H-imidazol-1-yl)acetyl)piperazin-1-yl)-3,3-dimethyl-3,4-dihydro-1H-pyrano[3,4-c]pyridine-5-carbonitrile], the IC50 under setting [1] lay in the range of 1000 to 10000 nM.

Regarding `C[C@@H]1CN(C(=O)c2ccco2)CCN1c1nc(C2CC2)c2c(c1C#N)CC(C)(C)OC2` [Compound 204, (R)-8-cyclopropyl-6-(4-(furan-2-carbonyl)-2-methylpiperazin-1-yl)-3,3-dimethyl-3,4-dihydro-1H-pyrano[3,4-c]pyridine-5-carbonitrile], the IC50 under setting [1] fell in the range of 1000 to 10000 nM.

In the case of `CC(C)c1nc(N2CCN(C(=O)NC3CCCCC3)CC2)c(C#N)c2c1COCC2` [Compound 107, 4-(5-cyano-8-isopropyl-3,4-dihydro-1H-pyrano[3,4-c]pyridin-6-yl)-N-cyclohexylpiperazine-1-carboxamide], under setting [1], the IC50 lay within 1000 to 10000 nM.

With `CCOC(=O)[C@@H]1CN(c2nc(C3CC3)c3c(c2C#N)CC(C)(C)OC3)CCN1C(C)=O` [Compound 468, (S)-ethyl 1-acetyl-4-(5-cyano-8-cyclopropyl-3,3-dimethyl-3,4-dihydro-1H-pyrano[3,4-c]pyridin-6-yl)piperazine-2-carboxylate], the IC50 (Table 3, read-out: R132H IC50) lay in the range of 500 to 1000 nM.

On to `COc1ccccc1CC(=O)N1CCN(c2nc(C3CC3)c3c(c2C#N)CC(C)(C)OC3)C[C@H]1C(C)C` [Compound 208], for which the IC50 under setting [1] was 500 to 1000 nM.

`CC1CN(c2nc(-c3cccc(F)c3)c3c(c2C#N)CC(C)(C)OC3)CCN1C(=O)c1ccoc1` (stereo not drawn) [Compound 130, 8-(3-fluorophenyl)-6-(4-(furan-3-carbonyl)-3-methylpiperazin-1-yl)-3,3-dimethyl-3,4-dihydro-1H-pyrano[3,4-c]pyridine-5-carbonitrile]: the IC50 under setting [1] was in the range of 1000 to 10000 nM.

For the molecule `CC(C)[C@@H]1CN(c2nc(C3CC3)c3c(c2C#N)CC(C)(C)OC3)CCN1C(=O)Cn1nccn1` [Compound 407, (R)-6-(4-(2-(2H-1,2,3-triazol-2-yl)acetyl)-3-isopropylpiperazin-1-yl)-8-cyclopropyl-3,3-dimethyl-3,4-dihydro-1H-pyrano[3,4-c]pyridine-5-carbonitrile], the IC50 under setting [1] was 500 to 1000 nM.

For `CC(C)[C@@H]1CN(c2nc(C3CC3)c3c(c2C#N)CC(C)(C)OC3)CCN1S(C)(=O)=O` [Compound 323, (R)-8-cyclopropyl-6-(3-isopropyl-4-(methylsulfonyl)piperazin-1-yl)-3,3-dimethyl-3,4-dihydro-1H-pyrano[3,4-c]pyridine-5-carbonitrile], the IC50 under setting [1] was in the range of 1000 to 10000 nM.

Consider `CC(C)c1nc(N2CCN(C(=O)c3ccc(Cl)cc3Cl)[C@H](C)C2)c(C#N)c2c1COC(C)(C)C2` [Compound 166, (R)-6-(4-(2,4-dichlorobenzoyl)-3-methylpiperazin-1-yl)-8-isopropyl-3,3-dimethyl-3,4-dihydro-1H-pyrano[3,4-c]pyridine-5-carbonitrile], for which the IC50 under setting [1] fell in the range of 1000 to 10000 nM.

With `CC(C)c1nc(N2CCN(C(=O)Cc3cccnc3)[C@H](C)C2)c(C#N)c2c1COC(C)(C)C2` [Compound 248, (R)-8-isopropyl-3,3-dimethyl-6-(3-methyl-4-(2-(pyridin-3-yl)acetyl)piperazin-1-yl)-3,4-dihydro-1H-pyrano[3,4-c]pyridine-5-carbonitrile], the IC50 under setting [1] lay within 1000 to 10000 nM.

Take `CC(C)c1nc(N2CCN(C(=O)Cc3cccs3)[C@H](C(C)C)C2)c(C#N)c2c1COC(C)(C)C2` [Compound 195, (R)-8-isopropyl-6-(3-isopropyl-4-(2-(thiophen-2-yl)acetyl)piperazin-1-yl)-3,3-dimethyl-3,4-dihydro-1H-pyrano[3,4-c]pyridine-5-carbonitrile]: the IC50 under setting [1] is less than 500 nM.

For `CC(C)c1nc(N2CCN(C(=O)c3ccco3)[C@H](c3ccccc3)C2)c(C#N)c2c1COC(C)(C)C2` [Compound 200, (R)-6-(4-(furan-2-carbonyl)-3-phenylpiperazin-1-yl)-8-isopropyl-3,3-dimethyl-3,4-dihydro-1H-pyrano[3,4-c]pyridine-5-carbonitrile], under setting [1], the IC50 lay within 1000 to 10000 nM.

Consider `CCOC(=O)C1CN(c2nc(C(C)C)c3c(c2C#N)CC(C)(C)OC3)CCN1C(=O)CCOC` (stereo not drawn) [Compound 311, ethyl 4-(5-cyano-8-isopropyl-3,3-dimethyl-3,4-dihydro-1H-pyrano[3,4-c]pyridin-6-yl)-1-(3-methoxypropanoyl)piperazine-2-carboxylate], for which the IC50 under setting [1] is 500 to 1000 nM.

As for `COCCC(=O)N1CCN(c2nc(C3CC3)c3c(c2C#N)CCN(CCO)C3)C[C@H]1C1CC1` [Compound 484, (R)-1-cyclopropyl-3-(3-cyclopropyl-4-(3-methoxypropanoyl)piperazin-1-yl)-7-(2-hydroxyethyl)-5,6,7,8-tetrahydro-2,7-naphthyridine-4-carbonitrile], the IC50 (Table 3, read-out: R132H IC50) is 500 to 1000 nM.

As to `CNC(=O)N1CCN(c2nc(C3CC3)c3c(c2C#N)CC(C)(C)OC3)C[C@H]1C(C)C` [Compound 344], under setting [1], the IC50 was less than 500 nM.

Consider `CCNC(=O)N1CCN(c2nc(C3CCCCC3)c3c(c2C#N)CCOC3)C[C@H]1C` [Compound 335, (R)-4-(5-cyano-8-cyclohexyl-3,4-dihydro-1H-pyrano[3,4-c]pyridin-6-yl)-N-ethyl-2-methylpiperazine-1-carboxamide], for which the IC50 under setting [1] lay in the range of 1000 to 10000 nM.

Regarding `CC(C)c1nc(N2CCN(C(=O)c3ccoc3)[C@H](C)C2)c(C#N)c2c1COC(C)(C)C2` [Compound 149, (R)-6-(4-(furan-3-carbonyl)-3-methylpiperazin-1-yl)-8-isopropyl-3,3-dimethyl-3,4-dihydro-1H-pyrano[3,4-c]pyridine-5-carbonitrile], under setting [1], the IC50 was 1000 to 10000 nM.

`COc1ccccc1CC(=O)N1CCN(c2nc(C(C)C)c3c(c2C#N)CC(C)(C)OC3)C[C@H]1C(C)C` [Compound 216, (R)-8-isopropyl-6-(3-isopropyl-4-(2-(2-methoxyphenyl)acetyl)piperazin-1-yl)-3,3-dimethyl-3,4-dihydro-1H-pyrano[3,4-c]pyridine-5-carbonitrile]: under setting [1], the IC50 lay within 1000 to 10000 nM.

`CC1(C)Cc2c(C#N)c(N3CCN(C(=O)C4CC4)C(CC(F)(F)F)C3)nc(C3CC3)c2CO1` (stereo not drawn) [Compound 471, 6-(4-(cyclopropanecarbonyl)-3-(2,2,2-trifluoroethyl)piperazin-1-yl)-8-cyclopropyl-3,3-dimethyl-3,4-dihydro-1H-pyrano[3,4-c]pyridine-5-carbonitrile]: the IC50 (Table 3, read-out: R132H IC50) was 500 to 1000 nM.

As to `CC(C)c1nc(N2CCN(C(=O)c3ccco3)[C@H](C)C2)c(C#N)c2c1COCC2` [Compound 139, (R)-6-(4-(furan-2-carbonyl)-3-methylpiperazin-1-yl)-8-isopropyl-3,4-dihydro-1H-pyrano[3,4-c]pyridine-5-carbonitrile], under setting [1], the IC50 was 1000 to 10000 nM.

On to `CC(C)[C@@H]1CN(c2nc(C3CC3)c3c(c2C#N)CC(C)(C)OC3)CCN1C(=O)C1CCOCC1` [Compound 305], for which the IC50 under setting [1] lay within 1000 to 10000 nM.

For the molecule `Cc1occc1C(=O)N1CCN(c2nc(C(C)C)c3c(c2C#N)CC(C)(C)OC3)C[C@H]1C` [Compound 163, (R)-8-isopropyl-3,3-dimethyl-6-(3-methyl-4-(2-methylfuran-3-carbonyl)piperazin-1-yl)-3,4-dihydro-1H-pyrano[3,4-c]pyridine-5-carbonitrile], the IC50 under setting [1] fell in the range of 500 to 1000 nM.
